Test system: 242566-281-R-J2-PDC complex spheroid viability
Experiment: Anticancer human tumor 242566-281-R-J2-PDC patient-derived pancreatic carcinoma cell line growth inhibition [RAS]
Conditions: for IC50: curve of first compound; for viability, T/C: stronger effect = lower value
Method in brief: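 Multi-cell-type spheroids: tumor cells plus HUVEC endothelial cells and mesenchymal stem cells. RAS-pathway inhibitors were combined with targeted agents, each dosed in half-log steps down from clinical Cmax, or from 10 microM when Cmax was unknown.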
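Further: spheroids exposed to compound for 7 days before readout.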
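Wherever viability, T/C is given: 100% = DMSO vehicle control wells.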

C=CC(=O)N1CCN(c2nc(OCC3CCCN3C)nc3c(F)c(-c4nc(N)cc(C)c4C(F)(F)F)c(Cl)cc23)C(C)C1 (configuration not stated) + CCn1c(-c2cccnc2C(C)OC)c2c3cc(ccc31)N1CCOC(CC(NC(=O)C(C(C)C)N(C)C(=O)C3(F)CCN(C(=O)C#CC(C)(C)N(C)C)CC3)C(=O)N3CCCC(N3)C(=O)OCC(C)(C)C2)C1
IC50 (second compound 0.000949 µM): > 1 µM | IC50 (second compound 0.003 µM): > 1 µM | IC50 (second compound 0.00949 µM): > 1 µM | IC50 (second compound 0.03 µM): > 1 µM | IC50 (second compound 0.0949 µM): > 1 µM | IC50 (second compound 0.3 µM): > 1 µM | viability, T/C (second compound 0.000949 µM, first compound 0.00316 µM): 111% | viability, T/C (second compound 0.000949 µM, first compound 0.01 µM): 98.5% | viability, T/C (second compound 0.000949 µM, first compound 0.0316 µM): 88.2% | viability, T/C (second compound 0.000949 µM, first compound 0.1 µM): 113% | viability, T/C (second compound 0.000949 µM, first compound 0.316 µM): 93.8% | viability, T/C (second compound 0.000949 µM, first compound 1 µM): 79.2% | viability, T/C (second compound 0.003 µM, first compound 0.00316 µM): 115% | viability, T/C (second compound 0.003 µM, first compound 0.01 µM): 93.2% | viability, T/C (second compound 0.003 µM, first compound 0.0316 µM): 99.8% | viability, T/C (second compound 0.003 µM, first compound 0.1 µM): 84.8% | viability, T/C (second compound 0.003 µM, first compound 0.316 µM): 95.4% | viability, T/C (second compound 0.003 µM, first compound 1 µM): 86.7% | viability, T/C (second compound 0.00949 µM, first compound 0.00316 µM): 103% | viability, T/C (second compound 0.00949 µM, first compound 0.01 µM): 87% | viability, T/C (second compound 0.00949 µM, first compound 0.0316 µM): 79.5% | viability, T/C (second compound 0.00949 µM, first compound 0.1 µM): 76% | viability, T/C (second compound 0.00949 µM, first compound 0.316 µM): 93.1% | viability, T/C (second compound 0.00949 µM, first compound 1 µM): 83.9% | viability, T/C (second compound 0.03 µM, first compound 0.00316 µM): 98.6% | viability, T/C (second compound 0.03 µM, first compound 0.01 µM): 110% | viability, T/C (second compound 0.03 µM, first compound 0.0316 µM): 97.5% | viability, T/C (second compound 0.03 µM, first compound 0.1 µM): 92.7% | viability, T/C (second compound 0.03 µM, first compound 0.316 µM): 78% | viability, T/C (second compound 0.03 µM, first compound 1 µM): 99.8% | viability, T/C (second compound 0.0949 µM, first compound 0.00316 µM): 86.6% | viability, T/C (second compound 0.0949 µM, first compound 0.01 µM): 93.5% | viability, T/C (second compound 0.0949 µM, first compound 0.0316 µM): 92.6% | viability, T/C (second compound 0.0949 µM, first compound 0.1 µM): 86.9% | viability, T/C (second compound 0.0949 µM, first compound 0.316 µM): 87% | viability, T/C (second compound 0.0949 µM, first compound 1 µM): 90.5% | viability, T/C (second compound 0.3 µM, first compound 0.00316 µM): 85.7% | viability, T/C (second compound 0.3 µM, first compound 0.01 µM): 87.3% | viability, T/C (second compound 0.3 µM, first compound 0.0316 µM): 89.2% | viability, T/C (second compound 0.3 µM, first compound 0.1 µM): 75.7% | viability, T/C (second compound 0.3 µM, first compound 0.316 µM): 95.1% | viability, T/C (second compound 0.3 µM, first compound 1 µM): 81.7%
